Among the data in patent US20260250290A1 (BRISTOL-MYERS SQUIBB COMPANY, priority 2023, published 2026) are IC50 values, retold here.

Where a name gives a salt, the structure may show the parent alone.

The assay deals with T1, full length SGK1 (Homo sapiens, UniProt O00141).
T1 construct: 125 μM full length SGK1 (Life Technologies Part #PR7358A); purchased Life Technologies PR7358A
T1 sequence (O00141 1-431): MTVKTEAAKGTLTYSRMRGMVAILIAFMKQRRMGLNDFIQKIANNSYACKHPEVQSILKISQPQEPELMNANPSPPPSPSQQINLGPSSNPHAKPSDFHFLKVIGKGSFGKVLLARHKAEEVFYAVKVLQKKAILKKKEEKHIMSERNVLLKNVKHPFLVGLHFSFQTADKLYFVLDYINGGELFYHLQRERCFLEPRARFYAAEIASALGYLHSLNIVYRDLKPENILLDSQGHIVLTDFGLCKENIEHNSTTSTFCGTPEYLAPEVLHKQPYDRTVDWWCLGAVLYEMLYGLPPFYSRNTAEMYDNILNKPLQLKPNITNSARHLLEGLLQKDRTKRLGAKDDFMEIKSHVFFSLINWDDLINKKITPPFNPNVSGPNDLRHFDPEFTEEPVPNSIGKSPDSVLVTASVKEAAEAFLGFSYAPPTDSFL
Nature of the assay: SGK1 inhibition Assay A (Caliper LabChip electrophoretic separation of fluorescent peptide substrate and phosphorylated product). In kind it is biochemical. The following applies: Assay A; 20 μM ATP, 40 min incubation; read-out: SGK1 IC50.

As for `CCc1cccc(C(=O)N[C@@H]2CCCN(c3cc(-c4ccc(S(C)(=O)=O)cc4)n4ncnc(N)c34)C2)c1` [Example 79, (R)-N-(1-(4-amino-7-(4-(methylsulfonyl)phenyl)pyrrolo[2,1-f][1,2,4]triazin-5-yl)piperidin-3-yl)-3-ethylbenzamide, TFA], the IC50 was found to be 0.026 µM.

For the compound `C=Cc1cccc(C(=O)N[C@@H]2CCCN(c3cc(-c4ccc(S(C)(=O)=O)cc4)n4ncnc(N)c34)C2)c1` [Example 80, (R)-N-(1-(4-amino-7-(4-(methylsulfonyl)phenyl)pyrrolo[2,1-f][1,2,4]triazin-5-yl)piperidin-3-yl)-3-vinylbenzamide], the IC50 stood at 0.014 µM.

As to `CC(C)c1cccc(C(=O)N[C@@H]2CCCN(c3cc(-c4ccc(S(C)(=O)=O)cc4)n4ncnc(N)c34)C2)c1` [Example 81, (R)-N-(1-(4-amino-7-(4-(methylsulfonyl)phenyl)pyrrolo[2,1-f][1,2,4]triazin-5-yl)piperidin-3-yl)-3-isopropylbenzamide], the IC50 came out at 0.032 µM.

Consider `CS(=O)(=O)c1ccc(-c2cc(N3CCC[C@@H](NC(=O)c4cccc(C5CC5)c4)C3)c3c(N)ncnn23)cc1` [Example 82, (R)-N-(1-(4-amino-7-(4-(methylsulfonyl)phenyl)pyrrolo[2,1-f][1,2,4]triazin-5-yl)piperidin-3-yl)-3-cyclopropylbenzamide], for which the IC50 was found to be 0.015 µM.

In the case of `CS(=O)(=O)c1ccc(-c2cc(N3CCC[C@@H](NC(=O)c4ccc5c(c4)CC5)C3)c3c(N)ncnn23)cc1` [Example 83, (R)-N-(1-(4-amino-7-(4-(methylsulfonyl)phenyl)pyrrolo[2,1-f][1,2,4]triazin-5-yl)piperidin-3-yl)bicyclo[4.2.0]octa-1(6),2,4-triene-3-carboxamide, TFA], the 50% inhibitory concentration (IC50) came out at 0.048 µM.

For `Cc1ccc(C(=O)N[C@@H]2CCCN(c3cc(-c4ccc(S(C)(=O)=O)cc4)n4ncnc(N)c34)C2)cc1C` [Example 84, (R)-N-(1-(4-amino-7-(4-(methylsulfonyl)phenyl)pyrrolo[2,1-f][1,2,4]triazin-5-yl)piperidin-3-yl)-3,4-dimethylbenzamide, TFA], the IC50 was 0.019 µM.

Consider `CS(=O)(=O)c1ccc(-c2cc(N3CCC[C@@H](NC(=O)c4cccc(Br)c4)C3)c3c(N)ncnn23)cc1` [Example 85, (R)-N-(1-(4-amino-7-(4-(methylsulfonyl)phenyl)pyrrolo[2,1-f][1,2,4]triazin-5-yl)piperidin-3-yl)-3-bromobenzamide, TFA], for which the IC50 came to 0.027 µM.

As for `CS(=O)(=O)c1ccc(-c2cc(N3CCC[C@@H](NC(=O)c4ccnc(Br)c4)C3)c3c(N)ncnn23)cc1` [Example 86, (R)-N-(1-(4-amino-7-(4-(methylsulfonyl)phenyl)pyrrolo[2,1-f][1,2,4]triazin-5-yl)piperidin-3-yl)-2-bromoisonicotinamide, TFA], the IC50 came out at 0.009 µM.

For the compound `Cc1ccc(C(=O)N[C@@H]2CCCN(c3cc(-c4ccc(S(C)(=O)=O)cc4)n4ncnc(N)c34)C2)s1` [Example 87, (R)-N-(1-(4-amino-7-(4-(methylsulfonyl)phenyl)pyrrolo[2,1-f][1,2,4]triazin-5-yl)piperidin-3-yl)-5-methylthiophene-2-carboxamide], the IC50 came out at 0.002 µM.

Turning to `CS(=O)(=O)c1ccc(-c2cc(N3CCC[C@@H](NC(=O)c4cccs4)C3)c3c(N)ncnn23)cc1` [Example 88, (R)-N-(1-(4-amino-7-(4-(methylsulfonyl)phenyl)pyrrolo[2,1-f][1,2,4]triazin-5-yl)piperidin-3-yl)thiophene-2-carboxamide, TFA], the IC50 amounted to 0.008 µM.

Take `Cc1cc(C(=O)N[C@@H]2CCCN(c3cc(-c4ccc(S(C)(=O)=O)cc4)n4ncnc(N)c34)C2)sc1C` [Example 89, (R)-N-(1-(4-amino-7-(4-(methylsulfonyl)phenyl)pyrrolo[2,1-f][1,2,4]triazin-5-yl)piperidin-3-yl)-4,5-dimethylthiophene-2-carboxamide]: the IC50 came out at 0.006 µM.

For the compound `CS(=O)(=O)c1ccc(-c2cc(N3CCC[C@@H](NC(=O)c4cc5c(s4)CCCC5)C3)c3c(N)ncnn23)cc1` [Example 90, (R)-N-(1-(4-amino-7-(4-(methylsulfonyl)phenyl)pyrrolo[2,1-f][1,2,4]triazin-5-yl)piperidin-3-yl)-4,5,6,7-tetrahydrobenzo[b] thiophene-2-carboxamide], the IC50 was found to be 0.049 µM.

On to `CCc1ccc(C(=O)N[C@@H]2CCCN(c3cc(-c4ccc(S(C)(=O)=O)cc4)n4ncnc(N)c34)C2)s1` [Example 91, (R)-N-(1-(4-amino-7-(4-(methylsulfonyl)phenyl)pyrrolo[2,1-f][1,2,4]triazin-5-yl)piperidin-3-yl)-5-ethylthiophone-2-carboxamide], for which the IC50 was 0.01 µM.

With `CS(=O)(=O)c1ccc(-c2cc(N3CCC[C@@H](NC(=O)c4ccc(C5CC5)s4)C3)c3c(N)ncnn23)cc1` [Example 92, (R)-N-(1-(4-amino-7-(4-(methylsulfonyl)phenyl)pyrrolo[2,1-f][1,2,4]triazin-5-yl)piperidin-3-yl)-5-cyclopropylthiophene-2-carboxamide, TFA], the IC50 came out at 0.01 µM.

As to `CS(=O)(=O)c1ccc(-c2cc(N3CCC[C@@H](NC(=O)c4ccc(F)s4)C3)c3c(N)ncnn23)cc1` [Example 93, (R)-N-(1-(4-amino-7-(4-(methylsulfonyl)phenyl)pyrrolo[2,1-f][1,2,4]triazin-5-yl)piperidin-3-yl)-5-fluorothiophene-2-carboxamide], the IC50 was 0.005 µM.

Turning to `CS(=O)(=O)c1ccc(-c2cc(N3CCC[C@@H](NC(=O)c4ccc(Cl)s4)C3)c3c(N)ncnn23)cc1` [Example 94, (R)-N-(1-(4-amino-7-(4-(methylsulfonyl)phenyl)pyrrolo[2,1-f][1,2,4]triazin-5-yl)piperidin-3-yl)-5-chlorothiophene-2-carboxamide], the IC50 was found to be 0.003 µM.

Consider `CS(=O)(=O)c1ccc(-c2cc(N3CCC[C@@H](NC(=O)c4ccc(Br)s4)C3)c3c(N)ncnn23)cc1` [Example 95, (R)-N-(1-(4-amino-7-(4-(methylsulfonyl)phenyl)pyrrolo[2,1-f][1,2,4]triazin-5-yl)piperidin-3-yl)-5-bromothiophene-2-carboxamide, TFA], for which the IC50 came out at 0.006 µM.

As for `COc1ccc(C(=O)N[C@@H]2CCCN(c3cc(-c4ccc(S(C)(=O)=O)cc4)n4ncnc(N)c34)C2)s1` [Example 96, (R)-N-(1-(4-amino-7-(4-(methylsulfonyl)phenyl)pyrrolo[2,1-f][1,2,4]triazin-5-yl)piperidin-3-yl)-5-methoxythiophene-2-carboxamide], the IC50 is 0.008 µM.

In the case of `Cc1csc(C(=O)N[C@@H]2CCCN(c3cc(-c4ccc(S(C)(=O)=O)cc4)n4ncnc(N)c34)C2)c1` [Example 97, (R)-N-(1-(4-amino-7-(4-(methylsulfonyl)phenyl)pyrrolo[2,1-f][1,2,4]triazin-5-yl)piperidin-3-yl)-4-methylthiophene-2-carboxamide, TFA], the IC50 was 0.003 µM.

As for `CS(=O)(=O)c1ccc(-c2cc(N3CCC[C@@H](NC(=O)c4sccc4F)C3)c3c(N)ncnn23)cc1` [Example 98, (R)-N-(1-(4-amino-7-(4-(methylsulfonyl)phenyl)pyrrolo[2,1-f][1,2,4]triazin-5-yl)piperidin-3-yl)-3-fluorothiophene-2-carboxamide], the IC50 came to 0.014 µM.

Consider `CCOc1ccsc1C(=O)N[C@@H]1CCCN(c2cc(-c3ccc(S(C)(=O)=O)cc3)n3ncnc(N)c23)C1` [Example 99, (R)-N-(1-(4-amino-7-(4-(methylsulfonyl)phenyl)pyrrolo[2,1-f][1,2,4]triazin-5-yl)piperidin-3-yl)-3-ethoxythiophene-2-carboxamide], for which the IC50 was determined as 0.007 µM.

On to `COc1cc(C)sc1C(=O)N[C@@H]1CCCN(c2cc(-c3ccc(S(C)(=O)=O)cc3)n3ncnc(N)c23)C1` [Example 100, (R)-N-(1-(4-amino-7-(4-(methylsulfonyl)phenyl)pyrrolo[2,1-f][1,2,4]triazin-5-yl)piperidin-3-yl)-3-methoxy-5-methylthiophene-2-carboxamide], for which the IC50 was determined as 0.008 µM.

On to `Cc1cnc(C(=O)N[C@@H]2CCCN(c3cc(-c4ccc(S(C)(=O)=O)cc4)n4ncnc(N)c34)C2)s1` [Example 101, (R)-N-(1-(4-amino-7-(4-(methylsulfonyl)phenyl)pyrrolo[2,1-f][1,2,4]triazin-5-yl)piperidin-3-yl)-5-methylthiazole-2-carboxamide], for which the IC50 is 0.021 µM.

As for `COc1cncc(C(=O)N[C@@H]2CCCN(c3cc(-c4ccc(S(C)(=O)=O)cc4)n4ncnc(N)c34)C2)c1` [Example 102, (R)-N-(1-(4-amino-7-(4-(methylsulfonyl)phenyl)pyrrolo[2,1-f][1,2,4]triazin-5-yl)piperidin-3-yl)-5-methoxynicotinamide, TFA], the IC50 is 0.045 µM.

For the compound `CS(=O)(=O)c1ccc(-c2cc(N3CCC[C@H](C(=O)Nc4nccs4)C3)c3c(N)ncnn23)cc1` [Example 103, (S)-1-(4-amino-7-(4-(methylsulfonyl)phenyl)pyrrolo[2,1-f][1,2,4]triazin-5-yl)-N-(thiazol-2-yl)piperidine-3-carboxamide], the IC50 was found to be 0.726 µM.

Turning to `CS(=O)(=O)c1ccc(-c2cc(N3CCC[C@@H](C(=O)Nc4nccs4)C3)c3c(N)ncnn23)cc1` [Example 104, (R)-1-(4-amino-7-(4-(methylsulfonyl)phenyl)pyrrolo[2,1-f][1,2,4]triazin-5-yl)-N-(thiazol-2-yl)piperidine-3-carboxamide], the IC50 was determined as 0.247 µM.
